According to US20230293509A1, “METHOD AND COMPOUND FOR USE, IN TREATING AND/OR PREVENTING NETOSIS” (JUBILANT EPIPAD LLC, priority 2020, published 2023):

Columns and labels:
DSS-induced colitis = assay: Dextran sulfate sodium (DSS) induced colitis model; assay type: in vivo, C57BL/6 male mice; conditions: 1 mg/kg, QD, oral; day 10
Description: Ulcerative colitis (UC) is an intermittent inflammatory bowel disease of the colonic mucosa, with periods of exacerbated symptoms (the active phase of the disease), and periods that are relatively symptom-free (remission phase of disease). Among various chemical induced colitis models, DSS-induced colitis model is widely used because of its simplicity and many similarities with human ulcerative colitis. C57BL/6 male mice at 6-8 weeks of age were purchased from vivo biotech India (under the license from Taconic). The procedures involving the care and use of animals in the study was reviewed and approved by the Institutional Animal Care and Use Committee (IAEC/JDC/2018-161R) prior to conduct. During the study, the care and use of animals was in accordance with the principles outlined in the Guide for the Care and Use of Laboratory Animals, 8th Edition, 2010 (National Research Council) and every effort was made to minimize suffering. The animals were acclimatized for ˜10 days prior to experimental use. Mice were caged with free access to food and fresh water in a temperature-controlled room (22° C.-24° C.) on a 12 h light/dark cycle. […]

4T1 cells = assay: Murine breast cancer efficacy model, 4T1 allograft; assay type: in vivo, Balb/C female mice; conditions: 4T1 bearing mice, oral gavage twice daily for 14 days
Experimental: (§1) PAD4 is highly expressed in malignant tumours of various cell types, Here, the mouse mammary carcinoma of 4T1 and EMT6 cells were used as an experimental model. Mouse 4T1, and EMT-6, a breast cancer cell line was sourced from American Type Culture Collection (ATCC), USA. Cells were grown according to the product information. To establish allografts, the cells were harvested by trypsinization when they reached around 70 to 80% confluence. After harvesting, Balb/C female mice (7-8 weeks) were implanted with 4T1 (1 million cells/site) and EMT-6 (0.5 million cells/site) subcutaneously in the dorsal right flank of mice using a 1 mL BD syringe attached to a 24-gauge needle. When the tumors became palpable tumor measurement was initiated and at an approximate tumor volume of ˜110 and 93 mm3, respectively. Animals were randomized into different treatment groups keeping tumor volume and the number of animals/group similar across the groups and compound 143 treatment was initiated. […]
(§2) Tumor dimensions (length and breadth) were measured on days 1 (animal randomization based on tumor volume) and thrice weekly thereafter until study termination.
(§3) Tumor volumes were calculated using the formula (b2*1)*0.52 where 1=length, b=breadth (Dusan Djokovic et al., BMC Cancer, 2010, 10:641). […]

[1] = tested on: Bleomycin (BLM)-induced mice fibrosis; assay: Bleomycin induced lung fibrosis model; assay type: in vivo, C57BL/6 male mice; conditions: 50 mg/kg, PO, BID
Description: Bleomycin (BLM)-induced mice fibrosis is a well-established animal model used to study pathogenesis of lung fibrosis and to estimate the potential anti-fibrotic agents. C57BL/6 male mice at 6-8 weeks of age were purchased from vivo biotech India (under the license from Taconic). The procedures involving the care and use of animals in the study was reviewed and approved by the Institutional Animal Care and Use Committee (IAEC/JDC/2018-161R) prior to conduct. During the study, the care and use of animals was in accordance with the principles outlined in the Guide for the Care and Use of Laboratory Animals, 8th Edition, 2010 (National Research Council) and every effort was made to minimize suffering. The animals were acclimatized for 7 days prior to experimental use. Mice were caged with free access to food and fresh water in a temperature-controlled room (22° C.-24° C.) on a 12 h light/dark cycle. Pulmonary fibrosis was induced by invasive method in animals using single intra-tracheal administration of 50 μg bleomycin prepared in 50 μL of saline under isoflurane anaesthesia. […] Animals were monitored and evaluated for their body weight loss. […] Fibronectin was measured as a PD biomarker by RT-qPCR and fold change in mRNA level was calculated after normalizing to GAPDH. […] The Modified Ashcroft Index score was determined for the vehicle-treated control mice and the test compound treated mice.

EMT-6 cells = assay: Murine breast cancer efficacy model, EMT-6 allograft; assay type: in vivo, Balb/C female mice; conditions: EMT-6 bearing mice, oral gavage twice daily for 13 days
Experimental: as §1, §2, §3

[2] = tested on: silica induced lung fibrosis; assay: Silica induced pro-fibrotic lung model; assay type: in vivo, C57BL/6 female mice; conditions: 50 mg/kg PO, BID, day 7 to 11, comparable to Nintedanib 100 mg/kg, QD
Experimental: The instillation of silica into the murine lung results in the development of fibrotic nodules that resemble simple silicotic nodular fibrosis, which develop in humans following some occupational exposures to dust and particulate aerosols. Silica can be delivered to rodents via aerosolization, intratracheal administration or oropharyngeal aspiration. C57BL/6 female mice at an age of 6-8 weeks were instilled with silica particles (2.5 mg/mouse) by non-surgical intratracheal (IT) method. The day of silica instillation was defined as day 0. Test compound was administered twice daily and standard of care was dosed once daily from day 7 to 11 for therapeutic intervention. Animals were monitored and evaluated for their clinical signs and body weight loss. Animals were euthanized on day 11 and the lungs were weighed and biomarkers were analyzed in lung.

SMILES	Disease reversal (DAI) compared to disease control (DSS-induced colitis) [%]	Body weight changes (4T1 cells)	Lung weight ([1]; day 0 to 14, compared with Nintedanib 100 mg/kg, QD)	Fibronectin mRNA in lung (RT-qPCR) ([1]; day 0 to 14, compared with Nintedanib)	Body weight changes (EMT-6 cells)	Fibronectin level in lung [2]	Lung weight [2]
CCCCCCCCc1ccc(CCC(N)(CO)CO)cc1 [Fingolimod]	~58.9	–	–	–	–	–	–
N[C@@H]1CCCN(C(=O)c2cc3c4c(c2)nc(-c2cc5cccc(Cl)c5n2CC2CC2)n4CCO3)C1 [Compound 143, (R)-(3-aminopiperidin-1-yl)(2-(7-chloro-1-(cyclopropylmethyl)-1H-indol-2-yl)-3,4-dihydro-5-oxa-1,2a-diazaacenaphthylen-7-yl)methanone]	–	no significant body weight changes	reduction in lung weight comparable to standard of care Nintedanib	stronger reduction of fibronectin mRNA as compared to Nintedanib	no significant body weight changes	significant decrease	significant decrease
